pIC50: −log10 of the molar value. The source made the active and inactive calls. The calls are words filed in the database; no cut-off is given here.
Tests used:
[1] = test system: Calu-6; assay: cells; settings: Homo sapiens, Calu-6, 72 h
[2] = in vivo; settings: nude, mouse, plasma, po, 1000 mg/kg
[3] = test system: COLO 205; assay: cells; settings: Homo sapiens, COLO 205, 72 h
[4] = species: Mus musculus; settings: SCID, dose 100.0 mg/kg, route po, time 15.0 day
[5] = test system: A-375; assay: cells; settings: Homo sapiens, A-375, 72 h
[6] = cells; settings: Homo sapiens, COLO-829, 1 h
[7] = test system: LoVo; assay: cells; settings: Homo sapiens, 72 h
[8] = test system: SK-MEL-2; assay: cells; settings: Homo sapiens, SK-MEL-2, 72 h
[9] = test system: SW-620; assay: cells; settings: Homo sapiens, SW-620, 72 h
[10] = test system: NCI-H1299; assay: cells; settings: Homo sapiens, NCI-H1299, 72 h
[11] = test system: WM 266-4; assay: cells; settings: Homo sapiens, WM 266-4, 72 h
[12] = cells; settings: Homo sapiens, A-375, 1 h
[13] = test system: HCT-116; assay: cells; settings: Homo sapiens, HCT-116, 72 h
[14] = cells; settings: Homo sapiens, COLO 205, 1 h
[15] = animal or person; settings: Mus musculus, COLO 205, po, 336 h, read-out: INH
[16] = test system: COLO-829; assay: cells; settings: Homo sapiens, COLO-829, 72 h
[17] = test system: SK-MEL3; assay: cells; settings: Homo sapiens, SK-MEL3, 72 h
[18] = test system: NCI-H460; assay: cells; settings: Homo sapiens, NCI-H460, 72 h
[19] = cells; settings: HT716, 72 h
[20] = cells; settings: Homo sapiens, SW-620, 1 h

- GI50 [1]: 26 µM
- concentration at 336 h [2]: ≤ 600 µM
- GI50 [3]: 0.31 µM
- GI50 [5]: 0.5 µM
- pIC50 [6]: 7.36
- GI50 [7]: 29 µM
- GI50 [8]: 27 µM
- GI50 [9]: 13 µM
- GI50 [10]: 41 µM
- pIC50 [12]: 7.34
- GI50 [13]: 27 µM
- pIC50 [14]: 7.85
- GI50 [16]: 1.7 µM
- GI50 [17]: 27 µM
- GI50 [18]: 24 µM
- pIC50 [20]: < 4.40
Structure (SMILES): CCCS(=O)(=O)Nc1ccc(F)c(C(=O)c2c[nH]c3ncc(Cl)cc23)c1F [PLX-4720]
- inhibition [4]: Active
- GI50 [11]: 1.5 µM
- inhibition in vivo at 20 mg/kg [15]: 43%
- GI50 [19]: 10 µM
